Results taken from paper PMC8040626, “A unique Malpighian tubule architecture in Tribolium castaneum informs the evolutionary origins of systemic osmoregulation in beetles” (Proceedings of the National Academy of Sciences of the …, 2021).
“Also recorded” adds a separate entry of the source.

Experiments:
[1] = tested on: Urn8R on the SC basal membrane; assay: Ex vivo ligand-receptor binding assay, T. castaneum tubules; design: species or system Tribolium castaneum; conditions: T. castaneum MTs, labelled peptide 10^-7 M, confocal microscopy
From the text: To dissect the molecular mechanism underpinning Urn8-mediated control of tubule function, we immunolocalized Urn8R to the tubule epithelium of T. castaneum. […] The SC identity of this Urn8R-expressing cell type was verified by colocalization of the Tiptop transcription factor, which is known to control SC differentiation in other insects ([21]) (SI Appendix, Fig. S2A). The fact that the Urn8 pathway is confined exclusively to SCs in T. castaneum is in contrast to that of all other insects studied to date in which this hormonal circuit is diagnostic of PC activity, the majority cell type ([22]–[24]). […] Specificity of the antibody was verified by the lack of staining in MTs from Urn8R-silenced animals, and by the fact that the molecular weight of the protein corresponds to the predicted size of the receptor (Fig. 2 A and B). […]
(§1) Ligand-Receptor Binding Assay. […] Next, the tissues were set-up in a matched-pair protocol, in which one batch was incubated in the appropriate insect saline added the labelled neuropeptide analogue ([…]) and DAPI (1 µg ml-1), while the other was incubated in just DAPI; the latter batch was used to adjust baseline filter and exposure settings to minimize auto-fluorescence during image acquisition.
(§2) Images were subsequently recorded on a Zeiss LSM 800 confocal microscope using baseline filter and exposure settings. […]

[2] = tested on: basolateral membranes of SCs in MTs; assay: Ex vivo ligand-receptor binding assay, T. molitor tubules; design: species or system Tenebrio molitor; conditions: labelled peptide 10^-7 M, confocal microscopy
From the text: Fig. 2. The Urn8 receptor localizes to a secondary cell type in MTs and is activated by its endogenous ligands DH37 and DH47. (A) Urn8R is expressed in a subpopulation of cells throughout the “free” part of the T. castaneum MT (small arrows); there are 53 ± 2 (n = 8) cells per tubule. […] (Scale bars, Left, 150 μm; Middle and Right, 30 μm.) (B) Western blot analysis of protein extracts from T. castaneum tubules showing that the anti-Urn8R antiserum recognizes a protein of a size of approximately 50 to 55 kDa, consistent with the predicted size of the receptor (51.6 kDa for the dominant -RA isoform, arrow). (C) Application of fluorophore-coupled receptor agonists DH37-F and DH47-F (10^−7 M) to T. castaneum and T. molitor MTs. […] Values are expressed as mean ± SEM. […]
as §1, §2

[3] = tested on: tubule basolateral membranes; assay: Ex vivo ligand-receptor binding assay, all beetle species sampled; design: species or system all species sampled (beetles)
From the text: (§3) Collectively, our work points to a model in which beetle MT function operates via a two-cell–type model that is different from that of all other higher insects ([11]). To determine whether this epithelial organization is universal among beetles or, alternatively, a derived trait specific to the drought-resistant tenebrionid species, we adapted the ligand-receptor binding assay (as used in Fig. 2C) to systematically map MT tissue architecture across the beetle phylogeny. In our sampling strategy, we prioritized species representative of the larger beetle families while trying to select species inhabiting different types of ecological niches (dry, moist, or aquatic). […]
as §1, §2
(§4) Electrophysiological assays. […] In brief, the ion-selective microelectrode voltage was measured at a position close to the tissue (3–5 μm) and subsequently at a more distant position (app. 50 μm) from the tubule. […]

[4] = tested on: small-nucleated SC-type of MTs; assay: Ex vivo ligand-receptor binding assay, polyphagan beetles; conditions: all polyphagan beetles
From the text: as §3, §1, §2, §4

larger PC-type of MTs = assay: Ex vivo ligand-receptor binding assay, adephagan species
From the text: as §3, §1, §2, §4

| Binding of fluorophore-coupled ligand [3] | Substance | Binding of fluorophore-coupled ligand [1] | Binding of fluorophore-coupled ligand [2] | Binding of fluorophore-coupled ligand, cell type [4] | Binding of fluorophore-coupled ligand, cell type (larger PC-type of MTs) |
| --- | --- | --- | --- | --- | --- |
| specific and displaceable | TMR-C5-maleimide-AGALGESGASLSIVNSLDVLRNRLLLEIARKKAKEGANRNRQILLSLamide [DH47-F, fluorophore-coupled DH47 analog, TMR-C5-maleimide labelled] | bind to basolateral membranes of SCs; also recorded: Specific and displaceable binding to the SCs | bind to basolateral membranes of SCs; also recorded: Specific and displaceable binding to the SCs | localized entirely to a small-nucleated SC-type | confined to a larger PC-type |
| specific and displaceable | TMR-C5-maleimide-SPTISITAPIDVLRKTWAKENMRKQMQINREYLKNLQamide [DH37-F, fluorophore-coupled DH37 analog, TMR-C5-maleimide labelled] | bind to basolateral membranes of SCs; also recorded: Specific and displaceable binding to the SCs | bind to basolateral membranes of SCs; also recorded: Specific and displaceable binding to the SCs | localized entirely to a small-nucleated SC-type | confined to a larger PC-type |
